The values that follow come from patent US12559504B2, “Benzotriazole derivative” (UBE CORPORATION, priority 2019, dated 2026).

By inhibition is commonly meant the relative decrease from the control value, in per cent. The fold induction is the signal under treatment as a multiple of the control signal.

The subject of data set [1] is NQO1. In words: NQO1 enzyme induction test (in vitro) in Hepa1c1c7 cells. In kind it is cell-based. The note with it: Mus musculus, Hepa-1c1c7, 48 h, concentration to elevate the NQO1 activity by 1.5 times, about 48 hours, read-out: EC150. Here is the method: Each NQO1 assay was carried out by modifying a known method (Anal Biochem 1998; 169: 328-, Methods Enzymol 2004; 382: 243-). Hepa1c1c7 cells (mouse hepatocyte line manufacture by DS Pharma Biomedical Co., Ltd., REF. No. 95090613) were cultured (5% CO2, 37° C.). The cells were cultured in MEMα (manufactured by FUJIFILM Wako Pure Chemical Corporation, REF. 135-15175) medium comprising 10% FBS (manufactured by GIBCO, REF. 10082) and […]/streptomycin/amphotericin B (manufactured by GIBCO, REF. 15240), and dispensed into a 96 well plate (manufactured by Costar, REF. 3610) at 2.0×10^3 cells/well. On the next day, test compound (final concentration of […]: 0.1%) dissolved into DMSO (manufactured by FUJIFILM Wako Pure Chemical Corporation, REF. 043-07216) was added to each well, and the plate was further cultured for about 48 hours.
A cell lysate manufactured by Cell signaling Technology, Inc. (REF. 9803) with the addition of a Protease Inhibitor manufactured by Roche Diagnostics K.K. (REF. 11-873580001) was used. A reaction solution (which is a solution comprising trishydrochloric acid (25 mM), albumin […], Tween-20 (0.01%), glucose-6-phosphate dehydrogenase (2 U/mL), flavin-adenine dinucleotide (5 μM), glucose-6-phosphate (1 μM), nicotinamide adenine dinucleotide phosphate (30 μM), 3-(4,5-dimethyl-2-thiazolyl)-2,5-diphenyltetrazolium bromide (MTT) (0.03%), and menadione (50 μM)), and a stop solution (which is a solution comprising dicumarol (0.3 mM) and potassium dihydrogen phosphate (5 mM), pH 7.4) were prepared. After the medium was removed, cell lysate (50 μL) was added thereto, and the resulting mixture was shaken at room temperature for 20 minutes. The reaction solution (200 μL) was added thereto, and the resulting mixture was left to stand at room temperature for 5 minutes. The stop solution (50 μL) was added thereto, and absorbance at 540 nm (reference 750 nm) was measured.
Cell number was measured by Cell Titer Glo assay (manufactured by Promega Corporation, REF. G9242) by using another plate prepared according to the same conditions as those described above, and correction of absorbance was carried out. The test result was analyzed by Excel, and the EC150 value which is the concentration to elevate the NQO1 activity by 1.5 times was calculated.

A short description of data set [2]: Metabolism test using human liver microsome fractions. The conditions noted are these: human liver microsomes, test compound 10 μmol/L, NADPH and UDP-glucuronic acid, 37° C. In kind it is in vitro ADME. Here is the method: A reaction composition solution (comprising NADPH Regenerating System, Solution A (manufactured by Corning Inc., REF. 451220) (50 μL), NADPH Regenerating System, Solution B (manufactured by Corning Inc., REF. 451200) (10 μL), 250 mM UDP-glucuronic acid (40 μL), UGT Reaction Mix Solution B (manufactured by Corning Inc., REF. 451320) (200 μL), and distilled water (640 μL)) in which human liver microsomes (manufactured by Xenotech, Cat. No. H610) or monkey liver microsomes (manufactured by Xenotech, Cat. No. P2000) (corresponding to 1 mg of protein) were suspended was prepared. After the solution was incubated at 37° C. for 5 minutes, each test compound dissolved into DMSO (manufactured by FUJIFILM Wako Pure Chemical Corporation, Code No. 043-07216) was added to the solution so that the final concentration was set to be 10 μmol/L, and a reaction was initiated. After 0, 5, 10, 15, 20, and 30 minute(s) from the initiation of the metabolism reaction, 100 μL of the reaction solution was taken out of the reaction system, and added to 200 μL of acetonitrile to stop the reaction. After the reaction was completed, the reaction solution was subjected to a work-up such as deproteinization, and then subjected to an UV-HPLC analysis to carry out the following analysis.
The peak area of each test compound was calculated by LabSolution software (Shimadzu Corporation), and the residual ratio (%) at each culture time of test material was calculated by the following equation. Residual ratio (%)=Peak area at each culture time[…]Peak area at 0 (initial time)
Next, the residual amount (nmol/mg/mL) at each culture time of test material was calculated by the following equation. Residual amount (nmol/mg/mL)=Initial concentration of reaction solution (10 nmol/mg/mL)×residual ratio÷100
Finally, a graph in which the reaction time was plotted at horizontal axis and the residual amount was plotted at longitudinal axis was prepared on Excel, and the inclination was calculated as the elimination rate (pmol/min/mg-P) within the time range in which the graph was deemed linear.
On the technique in general: Liver microsomes are a subcellular fraction often used to study metabolism.

For data set [3], the target named is T1, GST fusion human Keap1 (amino acid residue: 325-624) protein (Homo sapiens, UniProt Q14145).
T1 construct: GST fusion human Keap1 (amino acid residue: 325-624) protein; purchased Protein tech Ag0779
T1 sequence (Q14145 325-624): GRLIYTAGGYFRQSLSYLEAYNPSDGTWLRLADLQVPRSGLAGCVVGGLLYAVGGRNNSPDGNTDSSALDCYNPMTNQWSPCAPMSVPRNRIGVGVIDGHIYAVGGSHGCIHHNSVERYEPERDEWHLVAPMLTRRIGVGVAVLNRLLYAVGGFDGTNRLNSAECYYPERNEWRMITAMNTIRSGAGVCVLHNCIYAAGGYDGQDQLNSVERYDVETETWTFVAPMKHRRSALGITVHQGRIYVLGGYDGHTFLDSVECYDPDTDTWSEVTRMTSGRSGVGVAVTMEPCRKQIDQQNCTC
The experiment in a line: Keap1-Nrf2 binding inhibition test (fluorescence polarization). The conditions noted are these: compound concentration of 100 nM; read-out: inhibition rate. Here is the method:
The inhibitory activity of each test compound on the binding between Nrf2 and Keap1 was measured by the fluorescence polarization method. A solution consisting of 20 mM tris-hydrochloride pH7.5 (NIPPON GENE CO., LTD., REF: 318-90225), 150 mM NaCl [FUJIFILM Wako Pure Chemical. Corporation, REF: 191-01665], 0.05% Tween 20 (BioRAD, REF: 161-0781), and 5 mM DTT (FUJIFILM Wako Pure Chemical Corporation, REF: 049-08972) was used as a buffer solution. To a test compound solution (70 μL) adjusted to each concentration with 10% DMSO (FUJIFILM Wako Pure Chemical Corporation, REF: 043-07216) was added a buffer solution (350 μL) comprising 6 nM FITC-labeled Nrf2 peptide (FITC-Ahx-LDEETGEFL-NH2, Invitrogen) and 0.2 mg/mL of BSA (FUJIFILM Wako Pure Chemical Corporation, REF: 017-22231). Each 120 μL of the resulting mixture was dispensed into a black 96 well plate, and a buffer solution (80 μL) comprising 2.5 nM GST fusion human Keap1 (amino acid residue: 325-624) protein (Protein tech, REF: Ag0779) was added thereto. A Keap1-free buffer solution was added to some wells to prepare negative controls. Meanwhile, compound-free wells were used as positive controls. The plate was incubated at room temperature for 30 minutes, and each fluorescence polarization at excitation wavelength of 482 nm and fluorescence wavelength of 530 nm was measured by using a plate reader Clariostar (BMG Labtech). The fluorescence polarization of the negative control was set to be 100% inhibition, fluorescence polarization of the positive control was set to be 0% inhibition, and the inhibition rate of each test compound at 100 nM was calculated by using the following equation. Inhibition rate (%)=100−((Fluorescence polarization when test compound was added−Fluorescence polarization of negative control)/(Fluorescence polarization of positive control−Fluorescence polarization of negative control))×100
(In general: In fluorescence polarisation assays a small probe gives low polarisation when free and higher when bound to something large.)

The subject of data set [4] is NQO1. In words: NQO1 expression induction test in mouse kidney (single administration). In kind it is in vivo. The note with it: Mus musculus, po, 6 h, BALB/c mouse kidney, 6 hours after administration, ratio to control group. The procedure: Each test compound solution for administration was prepared by dissolving or suspending each test compound into a 0.5 w/v % aqueous solution of methylcellulose (0.5% MC) (manufactured by Wako Pure Chemical Industries, Ltd.).
Each prepared test compound was orally administered to a BALB/c mouse (female, provided by Charles River Laboratories Japan, Inc.). Non-treated group was used as a control group. After 6 hours from the administration, each mouse was anesthetized with isoflurane, and euthanized with bloodletting by incising a lower aorta. Immediately, the left kidney was excised, cut into small pieces, and then the cut kidney pieces were transferred to RNA later (Thermo Fisher Scientific).
Then, mRNA was extracted from the collected kidney pieces by using NucleoSpin (registered trademark) RNA Kit (Takara Bio Inc.), each concentration was quantified by FlexStation3 (Molecular Devices), and then the concentration was adjusted to a constant concentration. A reverse transcription synthesis of cDNA was carried out from the mRNA with the constant concentration by using PrimeScript™ RT reagent Kit with gDNA Eraser and PCR Thermal Cycler (Takara Bio Inc.). Then, in addition to the resulting cDNA, SYBR (registered trademark) Premix Ex Taq™ II and NQO1, GAPDH primer (Takara Bio Inc.) were used to carry out Real-time PCR by PCR Thermal Cycler Dice Real time (Takara Bio Inc.), and the NQO1 expression was quantified by using the GAPDH expression as the reference.
In order to evaluate the NQO1 expression induction in each group, the NQO1 expression induction ratio was calculated by using the following equation. (NQO1 expression induction ratio)=(Average NQO1 expression in test compound administered group)[…](Average NQO1 expression in control group)

Consider `CC[C@@H]1CN(Cc2cc(C(c3ccc4c(nnn4C)c3C)C3(C(=O)O)CCC3)ccc2C)Cc2cc3ncccc3cc2O1` (single isomer, unassigned) [Example 87], for which, in the data set with NQO1 [1], the EC (1.5-fold NQO1 activity) is 0.0005 to 0.005 µM. In addition, in data set [2], the Human metabolic rate result is given as “A (metabolic rate<100 pmol/min/mg protein)”. In addition, the inhibition at 0.1 µM in data set [3] is not below 50%.
As to `CC[C@@H]1CN(Cc2cc(C(c3ccc4c(nnn4C)c3C)C(C)(C)C(=O)O)ccc2C)Cc2cc3cc(C)ccc3nc2O1` (stereo partly drawn) [Example 14-(b), 3-(1,4-dimethyl-1H-benzo[d][1,2,3]triazol-5-yl)-3-(3-(((R)-2-ethyl-8-methyl-2,3-dihydro-[1,4]oxazepino[7,6-b]quinolin-4 (5H)-yl)methyl)-4-methylphenyl)-2,2-dimethylpropanoic Acid], in the data set on NQO1 [1], the EC (1.5-fold NQO1 activity) lay in the range of 0.0005 to 0.005 µM. Besides, the inhibition at 0.1 µM in data set [3] was not below 50%. The fold induction at 30 mg/kg in the data set on NQO1 [4] is more than 6.
For `CC[C@@H]1CN(Cc2cc(C(c3ccc4c(nnn4C)c3C)C(C)(C)C(=O)O)ccc2C)Cc2c(ccc3cn[nH]c23)O1` (stereo partly drawn) [Example 20-(b), 3-(1,4-dimethyl-1H-benzo[d][1,2, 3]triazol-5-yl)-3-(3-(((R)-7-ethyl-1,7,8,10-tetrahydro-9H-[1,4]oxazepino[7,6-g]indazol-9-yl)methyl)-4-methylphenyl)-2,2-dimethylpropanoic Acid], the EC (1.5-fold NQO1 activity) with NQO1 [1] was 0.0005 to 0.005 µM. Further, in data set [2], the Human metabolic rate result was “D (200≤metabolic rate<250 pmol/min/me protein)”. For the same compound, the inhibition at 0.1 µM in data set [3] was not below 50%.
`CC[C@@H]1CN(Cc2cc(C(c3ccc4c(nnn4C)c3C)C(C)(C)C(=O)O)ccc2C)CC2=C(C=CC3=NCCCN32)O1` (stereo partly drawn) [Example 23, 3-(1,4-dimethyl-1H-benzo[d][1,2,3]triazol-5-yl)-3-(3-(((R)-4-ethyl-1,3,4,9,10,11-hexahydro-2H-pyrimido[1′,2′:1,6]pyrido[2,3-f][1,4]oxazepin-2-yl)methyl)-4-methylphenyl)-2,2-dimethylpropanoic Acid]: the EC (1.5-fold NQO1 activity) with NQO1 [1] was 0.05 to 0.5 µM. Further, the inhibition at 0.1 µM in data set [3] was not below 50%. In the data set on NQO1 [4], the fold induction at 30 mg/kg is not above 3.
On to `CC[C@@H]1CN(Cc2cc(C(c3ccc4c(nnn4C)c3C)C(C)(C)C(=O)O)ccc2C)Cc2ccc3ccccc3c2O1` (stereo partly drawn) [Example 24-(b), 3-(1,4-dimethyl-1H-benzo[d][1,2,3]triazol-5-yl)-3-(3-(((R)-2-ethyl-2,3-dihydronaphtho[2,1-f][1,4]oxazepin-4(5H)-yl)methyl)-4-methylphenyl)-2,2-dimethylpropanoic Acid], for which the EC (1.5-fold NQO1 activity) in the data set on NQO1 [1] was 0.005 to 0.05 µM. Also, the inhibition at 0.1 µM in data set [3] was not below 50%. The fold induction at 30 mg/kg in the data set on NQO1 [4] was more than 6.
Take `CC[C@@H]1CN(Cc2cc(C(c3ccc4c(nnn4C)c3C)C(C)(C)C(=O)O)ccc2C)Cc2cc3[nH]ncc3cc2O1` (stereo partly drawn) [Example 64-(b), 3-(1,4-dimethyl-1H-benzo[d][1,2,3)triazol-5-yl)-3-(3-(((R)-6-ethyl-1,6,7,9-tetrahydro-8H-(1,4]oxazepino[7,6-f]indazol-8-yl)methyl)-4-methylphenyl)-2,2-dimethylpropanoic Acid]: in the data set on NQO1 [1], the EC (1.5-fold NQO1 activity) lay within 0.005 to 0.05 µM. Further, in data set [2], the Human metabolic rate result is listed as “B (100≤metabolic rate<150 pmol/min/mg protein)”. Further, the inhibition at 0.1 µM in data set [3] was not below 50%.
As to `CC[C@@H]1CN(Cc2cc(C(c3ccc4c(nnn4C)c3C)C3(C(=O)O)CCCC3)ccc2C)Cc2cc3ncccc3cc2O1` (stereo partly drawn) [Example 83-(b), 1-((1,4-dimethyl-1H-benzo[d][1,2,3]triazol-5-yl) (3-(((R)-2-ethyl-2,3-dihydro-[1,4]oxazepino[7,6-g]quinolin-4 (5H)-yl)methyl)-4-methylphenyl)methyl)cyclopentane-1-carboxylic Acid], the EC (1.5-fold NQO1 activity) with NQO1 [1] was 0.005 to 0.05 µM. The Human metabolic rate result in data set [2] is given as “C (150≤metabolic rate<200 pmol/min/mg protein)”. The fold induction at 20 mg/kg with NQO1 [4] (Dose 20 mg/kg) was more than 6.
